Results from patent publication US12686673B2 (Blueprint Medicines Corporation, priority 2020, dated 2026).
Structures can show the parent of a compound that is named as a salt. Where two headings read alike, the source gives them in different places.

Experiments:
Format in all cases: cell-based
[1] = target: EGFR(D770_N771insSVD) expressing Ba/F3 stable cell line (Homo sapiens, UniProt P00533, DUP768-770, cells depend on it); test: Cellular proliferation (Alamar Blue) assay, EGFR D770_N771insSVD Ba/F3; settings: 72 hr, read-out: D770 IC50
EGFR(D770_N771insSVD) expressing Ba/F3 stable cell line, sequence (P00533 with tags, fused parts or gaps DUP768-770): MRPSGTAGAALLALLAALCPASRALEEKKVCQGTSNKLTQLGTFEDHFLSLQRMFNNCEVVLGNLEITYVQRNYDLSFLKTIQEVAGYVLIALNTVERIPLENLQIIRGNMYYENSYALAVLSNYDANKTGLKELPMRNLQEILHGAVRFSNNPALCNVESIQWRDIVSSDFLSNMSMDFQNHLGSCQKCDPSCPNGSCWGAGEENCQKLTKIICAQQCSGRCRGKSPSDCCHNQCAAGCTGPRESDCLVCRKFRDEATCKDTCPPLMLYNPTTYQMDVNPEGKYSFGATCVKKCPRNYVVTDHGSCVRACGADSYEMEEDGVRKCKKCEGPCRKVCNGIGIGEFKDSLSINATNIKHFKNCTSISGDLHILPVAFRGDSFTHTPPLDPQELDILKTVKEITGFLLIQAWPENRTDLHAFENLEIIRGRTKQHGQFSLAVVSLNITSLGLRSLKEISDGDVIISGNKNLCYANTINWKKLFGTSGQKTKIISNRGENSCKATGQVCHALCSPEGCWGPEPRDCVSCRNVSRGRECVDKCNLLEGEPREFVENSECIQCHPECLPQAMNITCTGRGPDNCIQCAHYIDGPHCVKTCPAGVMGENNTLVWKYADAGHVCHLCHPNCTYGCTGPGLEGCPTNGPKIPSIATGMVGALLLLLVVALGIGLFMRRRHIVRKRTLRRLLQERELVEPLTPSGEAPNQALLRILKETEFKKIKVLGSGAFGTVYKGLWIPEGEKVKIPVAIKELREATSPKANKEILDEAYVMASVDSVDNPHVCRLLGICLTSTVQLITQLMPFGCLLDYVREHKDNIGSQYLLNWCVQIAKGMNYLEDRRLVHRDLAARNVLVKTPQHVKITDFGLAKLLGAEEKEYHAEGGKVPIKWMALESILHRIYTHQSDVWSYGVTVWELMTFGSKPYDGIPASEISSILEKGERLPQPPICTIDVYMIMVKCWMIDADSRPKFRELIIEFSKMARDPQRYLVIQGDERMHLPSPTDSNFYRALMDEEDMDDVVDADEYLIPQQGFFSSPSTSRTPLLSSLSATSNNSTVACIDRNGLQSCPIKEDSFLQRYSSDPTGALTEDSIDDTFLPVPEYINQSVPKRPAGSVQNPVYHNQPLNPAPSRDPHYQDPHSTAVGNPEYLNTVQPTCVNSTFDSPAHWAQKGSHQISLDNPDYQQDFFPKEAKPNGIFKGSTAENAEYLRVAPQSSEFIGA
Method: (§1) • 1. EGFR(D770_N771insSVD) expressing Ba/F3 stable cell line • 2. EGFR (A767_dupASV) expressing Ba/F3 stable cell line • 3. A431 cells • 4. EGFR (H773insNPH) expressing Ba/F3 stable cell line • 5. HER2 (A775_G776insYVMA) expressing Ba/F3 stable cell line Assay Procedure: • 1. Seed cells at 5000 for A431 and 15,000 cells for Ba/F3 in 100 μL/well in complete media (for A431: DMEM with […] and for Ba/F3 cells: RPMI with 10% FBS) in 96-well tissue culture plate. Leave outer wells without cells for background measurements. Incubate at 37 degree Celsius in […] humidified incubator for 16-18 hours. • 2. Add 0.025 ml of 5× concentration compound dilution or DMSO control. Final compound concentration range is 10-0.0005 μM prepared in 3-fold serial dilutions. Incubate for 72 hr at 37 degree Celsius in […] humidified incubator. • 3. Add 0.0125 ml Alamar Blue™ reagent to each well with multi-channel pipette and tap gently on each side of the plate to mix. Incubate for 3 hours at 37 degree Celsius in 5% CO2 humidified incubator. • 4. […] Data analysis was performed using XLfit 5.5.0.5.

[2] = target: EGFR (A767_dupASV) expressing Ba/F3 stable cell line (Homo sapiens, UniProt P00533, DUP767-769, cells depend on it); test: Cellular proliferation (Alamar Blue) assay, EGFR A767_dupASV Ba/F3; settings: 72 hr, read-out: A767 IC50
EGFR (A767_dupASV) expressing Ba/F3 stable cell line, sequence (P00533 with tags, fused parts or gaps DUP767-769): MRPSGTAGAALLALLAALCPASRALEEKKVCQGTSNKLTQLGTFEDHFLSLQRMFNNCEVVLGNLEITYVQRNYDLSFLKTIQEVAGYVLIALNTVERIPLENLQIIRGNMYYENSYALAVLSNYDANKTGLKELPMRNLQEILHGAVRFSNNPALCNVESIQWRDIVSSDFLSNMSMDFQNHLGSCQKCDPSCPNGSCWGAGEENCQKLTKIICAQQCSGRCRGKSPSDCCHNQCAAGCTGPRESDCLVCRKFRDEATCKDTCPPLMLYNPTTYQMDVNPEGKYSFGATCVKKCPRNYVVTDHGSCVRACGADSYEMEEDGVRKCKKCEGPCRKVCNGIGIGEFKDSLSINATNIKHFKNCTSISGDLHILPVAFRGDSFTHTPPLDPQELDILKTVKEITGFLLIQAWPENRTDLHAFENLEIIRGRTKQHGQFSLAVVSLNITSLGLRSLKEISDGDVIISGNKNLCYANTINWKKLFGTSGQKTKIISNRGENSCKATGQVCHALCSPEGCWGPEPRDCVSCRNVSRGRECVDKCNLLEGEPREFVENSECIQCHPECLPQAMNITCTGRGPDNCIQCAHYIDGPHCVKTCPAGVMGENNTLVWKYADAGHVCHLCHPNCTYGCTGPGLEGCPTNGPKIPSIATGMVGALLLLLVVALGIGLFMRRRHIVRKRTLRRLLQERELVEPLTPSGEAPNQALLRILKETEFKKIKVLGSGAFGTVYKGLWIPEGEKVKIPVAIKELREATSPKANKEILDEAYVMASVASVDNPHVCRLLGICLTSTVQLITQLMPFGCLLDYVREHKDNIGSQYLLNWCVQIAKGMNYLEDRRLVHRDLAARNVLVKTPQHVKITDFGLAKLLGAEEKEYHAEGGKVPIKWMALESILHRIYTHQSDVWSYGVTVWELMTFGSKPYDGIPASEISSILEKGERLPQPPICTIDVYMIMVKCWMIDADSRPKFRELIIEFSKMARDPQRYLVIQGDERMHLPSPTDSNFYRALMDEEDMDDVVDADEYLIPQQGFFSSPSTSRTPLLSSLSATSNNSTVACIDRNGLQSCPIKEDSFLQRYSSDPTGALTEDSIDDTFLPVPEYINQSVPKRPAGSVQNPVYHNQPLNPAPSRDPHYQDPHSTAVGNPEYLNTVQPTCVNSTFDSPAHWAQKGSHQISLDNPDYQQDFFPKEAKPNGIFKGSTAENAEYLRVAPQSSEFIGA
Method: as §1

A431 cells = test: Cellular proliferation (Alamar Blue) assay, A431
Method: as §1

[3] = Homo sapiens, A-431; A431 cells, Alamar Blue, 72 hr; read-out: A431 IC50
[4] = Homo sapiens, A-431; A431 cells, 72 hr, Alamar Blue; read-out: A431 IC50

| GI50 [1] | GI50 [2] | IC50 (A431 cells; [3]) | IC50 (A431 cells; [4]) | SMILES |
| --- | --- | --- | --- | --- |
| 9.24 µM | > 10 µM | > 10 µM | – | C=CC(=O)Nc1ccc(F)c(Nc2nc(Nc3ccc(=O)[nH]c3)ncc2Cl)c1 [Compound 2, N-(3-((5-chloro-2-((6-oxo-1,6-dihydropyridin-3-yl)amino)pyrimidin-4-yl)amino)-4-fluorophenyl)acrylamide] |
| > 10 µM | > 10 µM | > 10 µM | – | C=CC(=O)Nc1ccc(F)c(Nc2nc(-n3ccc(N)cc3=O)ncc2Cl)c1 [Compound 3, N-(3-((2-(4-amino-2-oxopyridin-1(2H)-yl)-5-chloropyrimidin-4-yl)amino)-4-fluorophenyl)acrylamide] |
| 3 µM | 1.76 µM | 6.59 µM | – | CN(C)C/C=C/C(=O)Nc1ccc(F)c(Nc2nc(Nc3cnn(C)c3)ncc2Cl)c1 [Compound 4, (E)-N-(3-((5-chloro-2-((1-methyl-1H-pyrazol-4-yl)amino)pyrimidin-4-yl)amino)-4-fluorophenyl)-4-(dimethylamino)but-2-enamide] |
| > 10 µM | > 10 µM | 3.01 µM | – | C=CC(=O)Nc1ccc(Nc2nc(Nc3cnn(C)c3)ncc2Cl)c(F)c1 [Compound 10, N-(4-((5-chloro-2-((1-methyl-1H-pyrazol-4-yl)amino)pyrimidin-4-yl)amino)-3-fluorophenyl)acrylamide] |
| 2.41 µM | – | > 10 µM | – | C=CC(=O)Nc1ccc(F)c(N(c2ccccc2)c2nc(Nc3cnn(C)c3)ncc2Cl)c1 [Compound 20, N-(3-((5-chloro-2-((1-methyl-1H-pyrazol-4-yl)amino)pyrimidin-4-yl)(phenyl)amino)-4-fluorophenyl)acrylamide] |
| 4.76 µM | – | > 10 µM | – | C=CC(=O)Nc1ccc(F)c(Nc2nc(Nc3cc(COC)n(C)n3)ncc2Cl)c1 [Compound 21, N-(3-((5-chloro-2-((5-(methoxymethyl)-1-methyl-1H-pyrazol-3-yl)amino)pyrimidin-4-yl)amino)-4-fluorophenyl)acrylamide] |
| 2.62 µM | 1.99 µM | > 10 µM | – | Cc1cc(Nc2ncc(Cl)c(Nc3cc(NC(=O)/C=C/CN(C)C)ccc3F)n2)sn1 [Compound 27, (E)-N-(3-((5-chloro-2-((3-methylisothiazol-5-yl)amino)pyrimidin-4-yl)amino)-4-fluorophenyl)-4-(dimethylamino)but-2-enamide] |
| 0.36 µM | 0.947 µM | 1.36 µM | – | C=CC(=O)Nc1ccc(F)c(Nc2nc(Nc3cccnc3F)ncc2-c2ccc(C(F)(F)F)cc2)c1 [Compound 38, N-(4-fluoro-3-((2-((2-fluoropyridin-3-yl)amino)-5-(4-(trifluoromethyl)phenyl)pyrimidin-4-yl)amino)phenyl)acrylamide] |
| 3.04 µM | 8.29 µM | 2.93 µM | – | C=CC(=O)Nc1ccc(F)c(Nc2nc(Nc3ccccc3OC)ncc2-c2ccc(C(F)(F)F)cc2)c1 [Compound 39, N-(4-fluoro-3-((2-((2-methoxyphenyl)amino)-5-(4-(trifluoromethyl)phenyl)pyrimidin-4-yl)amino)phenyl)acrylamide trifluoroacetate] |
| > 10 µM | > 10 µM | 3.83 µM | – | C=CC(=O)Nc1ccc(F)c(Nc2nc(Nc3ccccc3Cl)ncc2-c2ccc(C(F)(F)F)cc2)c1 [Compound 40, N-(3-((2-((2-chlorophenyl)amino)-5-(4-(trifluoromethyl)phenyl)pyrimidin-4-yl)amino)-4-fluorophenyl)acrylamide trifluoroacetate] |
| 1.66 µM | > 10 µM | 7.33 µM | – | C=CC(=O)Nc1ccc(F)c(Nc2nc(Nc3csc(Cl)c3)ncc2-c2ccc(C(F)(F)F)cc2)c1 [Compound 41, N-(3-((2-((5-chlorothiophen-3-yl)amino)-5-(4-(trifluoromethyl)phenyl)pyrimidin-4-yl)amino)-4-fluorophenyl)acrylamide trifluoroacetate] |
| > 10 µM | > 10 µM | 8.99 µM | – | C=CC(=O)Nc1ccc(F)c(Nc2nc(NC3CCN(C)CC3)ncc2-c2ccc(C(F)(F)F)cc2)c1 [Compound 42, N-(4-fluoro-3-((2-((1-methylpiperidin-4-yl)amino)-5-(4-(trifluoromethyl)phenyl)pyrimidin-4-yl)amino)phenyl)acrylamide trifluoroacetate] |
| > 10 µM | > 10 µM | 3.67 µM | – | C=CC(=O)Nc1ccc(F)c(Nc2nc(NCCN(C)C)ncc2-c2ccc(C(F)(F)F)cc2)c1 [Compound 43, N-(3-((2-((2-(dimethylamino)ethyl)amino)-5-(4-(trifluoromethyl)phenyl)pyrimidin-4-yl)amino)-4-fluorophenyl)acrylamide trifluoroacetate] |
| > 10 µM | > 10 µM | 0.484 µM | – | C=CC(=O)Nc1ccc(F)c(Nc2nc(Nc3ccc(N(C)C)cc3)ncc2-c2ccc(C(F)(F)F)cc2)c1 [Compound 44, N-(3-((2-((4-(dimethylamino)phenyl)amino)-5-(4-(trifluoromethyl)phenyl)pyrimidin-4-yl)amino)-4-fluorophenyl)acrylamide trifluoroacetate] |
| 0.973 µM | 2.74 µM | 0.523 µM | – | C=CC(=O)Nc1ccc(F)c(Nc2nc(Nc3ccsc3)ncc2-c2ccc(C(F)(F)F)cc2)c1 [Compound 46, N-(4-fluoro-3-((2-(thiophen-3-ylamino)-5-(4-(trifluoromethyl)phenyl)pyrimidin-4-yl)amino)phenyl)acrylamide trifluoroacetate] |
| 8.62 µM | 3.29 µM | > 10 µM | – | C=CC(=O)Nc1ccc(F)c(Nc2nc(Nc3cnn(C)c3)ncc2C(=O)N(C)c2ccccc2)c1 [Compound 49, 4-((5-acrylamido-2-fluorophenyl)amino)-N-methyl-2-((1-methyl-1H-pyrazol-4-yl)amino)-N-phenylpyrimidine-5-carboxamide] |
| 2.89 µM | 2.66 µM | > 10 µM | – | C=CC(=O)Nc1ccc(F)c(Nc2nc(Nc3cnn(C)c3)ncc2-c2ccc(NC(C)=O)cc2)c1 [Compound 58, N-(3-((5-(4-acetamidophenyl)-2-((1-methyl-1H-pyrazol-4-yl)amino)pyrimidin-4-yl)amino)-4-fluorophenyl)acrylamide] |
| 7.87 µM | 3 µM | > 10 µM | – | C=CC(=O)Nc1ccc(F)c(Nc2nc(Nc3cnn(C)c3)ncc2-c2ccc(C(=O)NC)cc2)c1 [Compound 64, 4-(4-((5-acrylamido-2-fluorophenyl)amino)-2-((1-methyl-1H-pyrazol-4-yl)amino)pyrimidin-5-yl)-N-methylbenzamide] |
| 1 µM | 2.74 µM | 1.94 µM | – | C=CC(=O)Nc1ccc(F)c(Nc2nc(Nc3cnn(C)c3)ncc2-c2ccccc2C(F)(F)F)c1 [Compound 65, N-(4-fluoro-3-((2-((1-methyl-1H-pyrazol-4-yl)amino)-5-(2-(trifluoromethyl)phenyl)pyrimidin-4-yl)amino)phenyl)acrylamide] |
| 0.256 µM | 0.751 µM | 0.082 µM | – | C=CC(=O)Nc1ccc(F)c(Nc2nc(Nc3cnn(C)c3)ncc2-c2ccnc(C)c2)c1 [Compound 80, N-(4-fluoro-3-((2-((1-methyl-1H-pyrazol-4-yl)amino)-5-(2-methylpyridin-4-yl)pyrimidin-4-yl)amino)phenyl)acrylamide] |
| > 10 µM | > 10 µM | – | – | C=CC(=O)Nc1cccc2c1ccn2-c1nc(Nc2cnn(C)c2)ncc1-c1ccc(C(F)(F)F)cc1 [Compound 81, N-(1-(2-((1-methyl-1H-pyrazol-4-yl)amino)-5-(4-(trifluoromethyl)phenyl)pyrimidin-4-yl)-1H-indol-4-yl)acrylamide] |
| 0.671 µM | 0.942 µM | > 10 µM | – | C=CC(=O)Nc1ccc(F)c(Nc2nc(Nc3cnn(C)c3)ncc2-c2cn[nH]c2)c1 [Compound 98, N-(4-fluoro-3-((2-((1-methyl-1H-pyrazol-4-yl)amino)-5-(1H-pyrazol-4-yl)pyrimidin-4-yl)amino)phenyl)acrylamide] |
| > 10 µM | > 10 µM | – | – | C=CC(=O)Nc1ccc(F)c(Nc2nc(Nc3cnn(C)c3)ncc2-c2ccc(N(C)C)nc2)c1 [Compound 107, N-(3-((5-(6-(dimethylamino)pyridin-3-yl)-2-((1-methyl-1H-pyrazol-4-yl)amino)pyrimidin-4-yl)amino)-4-fluorophenyl)acrylamide] |
| – | – | – | 6.23 µM | C=CC(=O)Nc1ccc(F)c(Nc2nc(Nc3cnn(C)c3)ncc2-c2ccccc2-c2ccccc2)c1 [Compound 263, N-(3-((5-([1,1′-biphenyl]-2-yl)-2-((1-methyl-1H-pyrazol-4-yl)amino)pyrimidin-4-yl)amino)-4-fluorophenyl)acrylamide] |
| – | – | – | 4.89 µM | C=CC(=O)Nc1ccc(F)c(Nc2nc(Nc3cnn(C)c3)ncc2-c2cccc3cc[nH]c23)c1 [Compound 265, N-(3-((5-(1H-indol-7-yl)-2-((1-methyl-1H-pyrazol-4-yl)amino)pyrimidin-4-yl)amino)-4-fluorophenyl)acrylamide] |
